Where two headings read alike, the source gives them in different places.
Tests used:
[1] = molecular target: T1, bradykinin receptor 1 (B1R) of the rat (Rattus norvegicus, UniProt P97583); experiment: Functional study on the bradykinin receptor 1 (B1R), rat: FLIPR Ca2+ influx assay; assay type: cell-based
T1 construct: expressed in transfected cells; host or cells: CHO K1 cells
T1 sequence (P97583 1-337): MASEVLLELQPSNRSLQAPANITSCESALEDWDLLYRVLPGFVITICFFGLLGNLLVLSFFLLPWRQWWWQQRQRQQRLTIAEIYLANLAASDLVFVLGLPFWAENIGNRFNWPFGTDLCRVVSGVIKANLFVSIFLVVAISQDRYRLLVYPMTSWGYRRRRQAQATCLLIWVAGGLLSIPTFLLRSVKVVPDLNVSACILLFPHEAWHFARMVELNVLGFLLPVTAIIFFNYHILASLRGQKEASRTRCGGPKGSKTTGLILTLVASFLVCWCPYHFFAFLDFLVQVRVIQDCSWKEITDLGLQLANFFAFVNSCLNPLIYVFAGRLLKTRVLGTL
Description: (§1) The agonistic or antagonistic action of substances can be determined on the bradykinin receptor 1 (B1R) of the species human and rat using the following assay. According to this assay, the Ca^2+ influx through the channel is quantified with the aid of a Ca^2+-sensitive dye (Fluo-4 type, Molecular Probes Europe BV, Leiden, Netherlands) using a Fluorescent Imaging Plate Reader (FLIPR, Molecular Devices, Sunnyvale, USA).
(§2) Chinese hamster ovary cells (CHO K1 cells) which have been stably transfected with the human B1R gene (hB1R cells) or with the B1R gene of the rat (rB1R cells) are used. For functional studies, the cells are plated out on black 96-well plates having a clear base (BD Biosciences, Heidelberg, Germany or Greiner, Frickenhausen, Germany) in a density of 20,000-35,000 cells/well. The cells are incubated overnight at 37° C. and with 5% CO2 in culture medium (hB1R cells: Nutrient Mixture Ham's F12, Gibco Invitrogen GmbH, Karlsruhe, Germany or DMEM, Sigma-Aldrich, Taufkirchen, Germany; rB1R cells: D-MEM/F12, Gibco Invitrogen GmbH, Karlsruhe, Germany), with 10 vol. % FBS (fetal bovine serum, Gibco Invitrogen GmbH, Karlsruhe, Germany or PAN Biotech GmbH, Aidenbach, Germany).
(§3) On the following day, the cells are loaded for 60 minutes at 37° C. with 2.13 μM Fluo-4 (Molecular Probes Europe BV, Leiden, Netherlands) in HBSS buffer (Hank's buffered saline solution, Gibco Invitrogen GmbH, Karlsruhe, Germany) with 2.5 mM probenecid (Sigma-Aldrich, Taufkirchen, Germany) and 10 mM HEPES (Sigma-Aldrich, Taufkirchen, Germany). The plates are then washed twice with HBSS buffer, and HBSS buffer additionally containing 0.1% BSA (bovine serum albumin; Sigma-Aldrich, Taufkirchen, Germany), 5.6 mM glucose and 0.05% gelatin (Merck KGaA, Darmstadt, Germany) is added to the plates. After incubation for a further 20 minutes at room temperature, the plates are inserted into the FLIPR for Ca^2+ measurement. Alternatively, washing is carried out with buffer A (15 mM HEPES, 80 mM NaCl, 5 mM KCl, 1.2 mM CaCl2, 0.7 mM MgSO4, 2 g/l glucose, 2.5 mM probenecid) followed by loading with buffer A with added 2.5 μM Fluo-4 and 0.025% Pluronic F127 (Sigma-Aldrich, Taufkirchen, Germany). The cells are then washed twice with buffer A and incubated for 30 minutes at room temperature with buffer A additionally containing 0.05% BSA and 0.05% gelatin and are then inserted into the FLIPR for Ca^2+ measurement.
(§4) The Ca^2+-dependent fluorescence is measured before and after the addition of substances (λex=488 nm, λem=540 nm). Quantification is carried out by measuring the highest fluorescence intensity (FC, fluorescence counts) over time.
(§5) The FLIPR protocol consists of two substance additions. Test substances (10 μM) are first pipetted onto the cells and the Ca^2+ influx is compared with the control (hB1R: Lys-Des-Arg^9-bradykinin>=0.5 nM; rB1R: Des-Arg^9-bradykinin 10 μM). This gives the activation in %, based on the Ca^2+ signal after addition of Lys-Des-Arg^9-bradykinin (>=0.5 nM) or Des-Arg^9-bradykinin (10 μM).
(§6) After 10-20 minutes' incubation, Lys-Des-Arg^9-bradykinin (hB1R) or Des-Arg^9-bradykinin (rB1R) is applied in the concentration of the EC80, and the influx of Ca^2+ is likewise determined.
(§7) Antagonists lead to suppression of the Ca^2+ influx. The % inhibition compared with the maximum achievable inhibition is calculated.
(§8) In order to determine the IC50 value, the substances are added in various concentrations. Duplicate or triplicate determinations (n=2 or n=3) are carried out, and these are repeated in at least one further independent experiment (N>=2).

[2] = molecular target: T2, human bradykinin receptor 1 (B1R) (Homo sapiens, UniProt P46663); experiment: Functional study on the bradykinin receptor 1 (B1R), human: FLIPR Ca2+ influx assay; assay type: cell-based
T2 construct: expressed in transfected cells; host or cells: CHO K1 cells
T2 sequence (P46663 1-353): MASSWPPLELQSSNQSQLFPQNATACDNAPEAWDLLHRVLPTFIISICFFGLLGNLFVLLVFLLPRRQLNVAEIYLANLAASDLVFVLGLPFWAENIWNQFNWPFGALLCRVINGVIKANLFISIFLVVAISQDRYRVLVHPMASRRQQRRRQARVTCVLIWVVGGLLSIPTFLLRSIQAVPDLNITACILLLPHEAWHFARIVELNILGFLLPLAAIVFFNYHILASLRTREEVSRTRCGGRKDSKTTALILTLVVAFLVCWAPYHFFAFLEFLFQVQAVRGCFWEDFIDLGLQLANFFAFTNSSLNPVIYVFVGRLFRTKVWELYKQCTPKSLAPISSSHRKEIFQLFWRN
Description: Functional Study on the Human Bradykinin Receptor 1 (B1R)
as §1, §2, §3, §4, §5, §6, §7, §8

[3] = test substance 10 μM, CHO K1 cells transfected with rat B1R, Des-Arg9-bradykinin at EC80, Ca2+ influx (Fluo-4, FLIPR), read-out: B1R antagonism, rat [10 μM] % inhibition
[4] = test substance 10 μM, CHO K1 cells transfected with human B1R, Lys-Des-Arg9-bradykinin at EC80, Ca2+ influx (Fluo-4, FLIPR), read-out: B1R antagonism, human [10 μM] % inhibition

CN(C)C(c1cccc(F)c1)C1CCC(NC(=O)CC2c3ccccc3CCN2S(=O)(=O)c2ccc(Cl)c(Cl)c2)CC1 (stereo not drawn) [Example 26, 2-(2-(3,4-dichlorophenylsulfonyl)-1,2,3,4-tetrahydroisoquinolin-1-yl)-N-(4-((dimethylamino)(3-fluorophenyl)methyl)cyclohexyl)acetamide]
inhibition at 10 µM [1, 3]: 73%
inhibition at 10 µM [2, 4]: 97.4%

COc1ccc(S(=O)(=O)N2CCc3ccccc3C2CC(=O)NCC2CCC(C(c3ccc(Cl)cc3)N(C)C)CC2)cc1 (stereo not drawn) [Example 20, N-{4-[(4-chloro-phenyl)-dimethylamino-methyl]-cyclohexylmethyl}-2-[2-(4-methoxy-benzenesulfonyl)-1,2,3,4-tetrahydro-isoquinolin-1-yl]-acetamide]
inhibition at 10 µM [1, 3]: 28%
inhibition at 10 µM [2, 4]: 38.8%

COc1ccc(S(=O)(=O)N2CCc3ccccc3C2CC(=O)NCC2CCC(C(c3cccs3)N(C)C)CC2)cc1 (stereo not drawn) [Example 21, N-[4-(dimethylamino-thiophen-2-yl-methyl)-cyclohexylmethyl]-2-[2-(4-methoxybenzenesulfonyl)-1,2,3,4-tetrahydro-isoquinolin-1-yl]-acetamide]
inhibition at 10 µM [1, 3]: 41%
inhibition at 10 µM [2, 4]: 52.9%

COc1ccc(S(=O)(=O)N2CCc3ccccc3C2CC(=O)NCC2CCC(C(c3ccc(F)cc3)N(C)C)CC2)cc1 (stereo not drawn) [Example 19, N-{4-[dimethylamino-(4-fluoro-phenyl)-methyl]-cyclohexylmethyl}-2-[2-(4-methoxy-benzenesulfonyl)-1,2,3,4-tetrahydro-isoquinolin-1-yl]-acetamide]
inhibition at 10 µM [1, 3]: 41%
inhibition at 10 µM [2, 4]: 42.7%

CN(C)C(c1ccc(F)cc1)C1CCC(NC(=O)c2ccccc2N(C)S(=O)(=O)c2ccc(Cl)c(Cl)c2)CC1 (stereo not drawn) [Example 37, 2-[(3,4-dichloro-benzenesulfonyl)-methyl-amino]-N-{4-[dimethylamino-(4-fluoro-phenyl)-methyl]-cyclohexyl}-benzamide]
inhibition at 10 µM [1, 3]: 64%
inhibition at 10 µM [2, 4]: 82.2%

CN(C)C(c1ccc(F)cc1)C1CCC(CCNC(=O)c2ccccc2N(C)S(=O)(=O)c2ccc(Cl)c(Cl)c2)CC1 (stereo not drawn) [Example 45, 2-[(3,4-dichloro-benzenesulfonyl)-methyl-amino]-N-(2-{4-[dimethylamino-(4-fluoro-phenyl)-methyl]-cyclohexyl}-ethyl)-benzamide]
inhibition at 10 µM [1, 3]: 26%
inhibition at 10 µM [2, 4]: 75.7%

CN(C)C(c1cccc(F)c1)C1CCC(NC(=O)c2ccccc2N(C)S(=O)(=O)c2ccc(Cl)c(Cl)c2)CC1 (stereo not drawn) [Example 36, 2-[(3,4-dichloro-benzenesulfonyl)-methyl-amino]-N-{4-[dimethylamino-(3-fluoro-phenyl)-methyl]-cyclohexyl}-benzamide]
inhibition at 10 µM [1, 3]: 67%
inhibition at 10 µM [2, 4]: 64.1%

CN(C)C(c1ccc(F)cc1)C1CCC(CNC(=O)CC2c3ccccc3CCN2S(=O)(=O)c2ccc(Cl)c(Cl)c2)CC1 (stereo not drawn) [Example 31, 2-[2-(3,4-dichloro-benzenesulfonyl)-1,2,3,4-tetrahydro-isoquinolin-1-yl]-N-{4-[dimethylamino-(4-fluoro-phenyl)-methyl]-cyclohexylmethyl}-acetamide]
inhibition at 10 µM [1, 3]: 48%
inhibition at 10 µM [2, 4]: 54%

COc1ccc(S(=O)(=O)N2CCc3ccccc3C2CC(=O)NC2CCC(C(c3cccc(F)c3)N(C)C)CC2)cc1 (stereo not drawn) [Example 13, N-{4-[dimethylamino-(3-fluoro-phenyl)-methyl]-cyclohexyl}-2-[2-(4-methoxybenzenesulfonyl)-1,2,3,4-tetrahydro-isoquinolin-1-yl]-acetamide]
inhibition at 10 µM [1, 3]: 76%
inhibition at 10 µM [2, 4]: 64.4%

CN(C)C(c1cccc(F)c1)C1CCC(CCNC(=O)CC2c3ccccc3CCN2S(=O)(=O)c2ccc(Cl)c(Cl)c2)CC1 (stereo not drawn) [Example 34, 2-[2-(3,4-dichloro-benzenesulfonyl)-1,2,3,4-tetrahydro-isoquinolin-1-yl]-N-(2-{4-[dimethylamino-(3-fluoro-phenyl)-methyl]-cyclohexyl}-ethyl)-acetamide]
inhibition at 10 µM [1, 3]: 41%
inhibition at 10 µM [2, 4]: 71.2%

CN(C)C(c1cccc(F)c1)C1CCC(NC(=O)C2Cc3ccccc3N2S(=O)(=O)c2ccc(Cl)c(Cl)c2)CC1 (stereo not drawn) [Example 92, 1-(3,4-dichlorophenylsulfonyl)-N-(4-((dimethylamino)(3-fluorophenyl)methyl)cyclohexyl)indoline-2-carboxamide]
inhibition at 10 µM [1, 3]: -13%
inhibition at 10 µM [2, 4]: 26%

COc1ccc(S(=O)(=O)N2CCc3ccccc3C2CC(=O)NC2CCC(C(c3ccc(F)cc3)N(C)C)CC2)cc1 (stereo not drawn) [Example 14, N-{4-[dimethylamino-(4-fluoro-phenyl)-methyl]-cyclohexyl}-2-[2-(4-methoxybenzenesulfonyl)-1,2,3,4-tetrahydro-isoquinolin-1-yl]-acetamide]
inhibition at 10 µM [1, 3]: 75%
inhibition at 10 µM [2, 4]: 86.9%

CN(C)C(c1ccc(Cl)cc1)C1CCC(CCNC(=O)c2ccccc2N(C)S(=O)(=O)c2ccc(Cl)c(Cl)c2)CC1 (stereo not drawn) [Example 43, N-(2-{4-[(4-chloro-phenyl)-dimethylamino-methyl]-cyclohexyl}-ethyl)-2-[(3,4-dichloro-benzenesulfonyl)-methyl-amino]-benzamide]
inhibition at 10 µM [1, 3]: 11%
inhibition at 10 µM [2, 4]: 28.9%

CN(C)C(c1ccccc1)C1CCC(NC(=O)c2ccccc2N(C)S(=O)(=O)c2ccc(Cl)c(Cl)c2)CC1 (stereo not drawn) [Example 11, 2-[(3,4-dichloro-benzenesulfonyl)-methyl-amino]-N-[4-(dimethylamino-phenylmethyl)-cyclohexyl]-benzamide]
inhibition at 10 µM ([1]; CHO-K1, read-out: B1R antagonism, rat [10 μM] % inhibition): 107%
inhibition at 10 µM ([2]; CHO-K1, read-out: B1R antagonism, human [10 μM] % inhibition): 85.5%

COc1ccc(S(=O)(=O)N2CCc3ccccc3C2CC(=O)NCC2CCC(C(c3cccc(F)c3)N(C)C)CC2)cc1 (stereo not drawn) [Example 16, N-{4-[dimethylamino-(3-fluoro-phenyl)-methyl]-cyclohexylmethyl}-2-[2-(4-methoxy-benzenesulfonyl)-1,2,3,4-tetrahydro-isoquinolin-1-yl]-acetamide]
inhibition at 10 µM [1, 3]: 57%
inhibition at 10 µM [2, 4]: 35.5%
